Entries after “also recorded” stand apart in the source; their conditions may differ. Read-outs that look alike come from different tables or passages of the source.
Columns and labels:
[1] = tested on: patients with or without more advanced HF; assay type: in vivo, human; conditions: for KCCQ total symptom score (TSS), increase: inpatient; for KCCQ total symptom score (TSS), increase / KCCQ total symptom score (TSS), decrease: vs placebo; for KCCQ total symptom score (TSS), decrease: outpatient
Source text: Patients having more advanced heart failure (HF): In some aspects, provided is a method of treating a patient having more advanced HF by administering omecamtiv mecarbil as described herein. More advanced HF, also referred to as severe HF, refractory HF, or Stage D HF, can be determined based on a number of criteria recognized in the medical field. In some embodiments, more advanced HF refers to the published criteria from the 2018 ESC-HFA position statement (European journal of heart failure. 2018; 20:1505-1535). For the ESC-HFA criteria, patients were required to have all of 1) NYHA class III-IV symptoms, 2) a left ventricular ejection fraction 30%, 3) 2 or more hospitalizations for HF within the prior 12 months, and 4) evidence of severe functional impairment as defined by cardiopulmonary exercise testing or 6-minute walk test. In some embodiments, the hospitalization criteria is modified to one HF hospitalization within the prior 6 months In some embodiments, more advanced HF refers to patients having all of 1) NYHA class III-IV symptoms, 2) a left ventricular ejection fraction 30%, and 3) 1 or more hospitalizations for HF within the prior 6 months.
Baseline characteristics for patients classified as more advanced HF compared to those without were evaluated using appropriate summary statistics. Outcomes for patients with or without more advanced HF were compared using Cox proportional hazards models and Kaplan-Meier curves. […] Absolute event rates were described using rate per 100 patient-years. As a sensitivity analysis, the event rates and treatment effect of omecamtiv mecarbil for patients was assessed by specific advanced HF criteria met, as well as the total number of criteria met. For quality-of-life data as assessed by the Kansas City Cardiomyopathy Questionnaire Total Symptom Score (KCCQ TSS), linear regression adjusted for baseline scores was used to compare treatment effects of omecamtiv mecarbil compared to placebo. Safety and tolerability data for patients with advanced HF vs. those without were summarized using descriptive statistics. P value ≤0.05 was considered statistically significant for all analyses.

patients with HFrEF = conditions: result in words, cited from earlier work
CYP2C8 = biological target: T1, CYP2C8 (Homo sapiens, UniProt P10632); test: Clinical studies and physiologically based pharmacokinetic modeling of OM as perpetrator; assay type: in vivo; design: from tissue; conditions: clinical studies and PBPK modeling; result in words
T1 sequence (P10632 1-490): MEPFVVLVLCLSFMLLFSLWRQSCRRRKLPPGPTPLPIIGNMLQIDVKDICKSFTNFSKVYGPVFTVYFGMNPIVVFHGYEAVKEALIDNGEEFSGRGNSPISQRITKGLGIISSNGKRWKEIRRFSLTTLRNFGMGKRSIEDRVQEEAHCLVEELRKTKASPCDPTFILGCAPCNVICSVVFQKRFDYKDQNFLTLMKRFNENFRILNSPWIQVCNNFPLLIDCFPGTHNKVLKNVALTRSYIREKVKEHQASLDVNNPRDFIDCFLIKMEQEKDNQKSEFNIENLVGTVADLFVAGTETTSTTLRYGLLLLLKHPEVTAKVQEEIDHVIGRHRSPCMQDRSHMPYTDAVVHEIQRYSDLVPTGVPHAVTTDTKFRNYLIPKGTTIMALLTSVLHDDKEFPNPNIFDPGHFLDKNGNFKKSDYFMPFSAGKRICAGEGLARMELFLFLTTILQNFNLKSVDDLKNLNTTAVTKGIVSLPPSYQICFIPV
Source text: OM may be administered with drugs that are substrates of CYP3A4, CYP2C8, P-gp or BCRP.

[2] = Advanced HF, week 0 to 24, OM vs placebo
[3] = Less Advanced Heart Failure, OM group
[4] = Less Advanced Heart Failure, OM vs placebo
[5] = More Advanced Heart Failure, OM group
[6] = More Advanced Heart Failure, OM vs placebo

Structure (SMILES): COC(=O)N1CCN(Cc2cccc(NC(=O)Nc3ccc(C)nc3)c2F)CC1 [omecamtiv mecarbil]
- Creatinine ([1]; Advanced HF, OM group, week 24): 1.37 ± 0.55 mg/dL
- NT-proBNP ([1]; Advanced HF, OM group, week 24): 1837 [856, pg/ml
- Systolic BP ([1]; Advanced HF, OM group, week 24): 116.7 ± 17.3 mm Hg
- NT-proBNP (Ratio) [1, 2]: 0.86
- Troponin I (Ratio) [1, 2]: 1.30
- All-cause Death (%) [1, 3]: (23%)
- All-cause Death Rate [1, 3]: 12.4 per 100 patient years
- All-cause Death n/N [1, 3]: 692/3014
- HF Hosp as 1st Primary Event (%) [1, 3]: (24%)
- HF Hosp as 1st Primary Event Rate [1, 3]: 15.0 per 100 patient years
- HF Hosp as 1st Primary Event n/N [1, 3]: 722/3014
- Heart Failure Hospitalization (%) [1, 3]: (25%)
- Heart Failure Hospitalization Rate [1, 3]: 15.4 per 100 patient years
- Heart Failure Hospitalization n/N [1, 3]: 746/3014
- Primary Outcome (%) [1, 3]: (34%)
- Primary Outcome Rate [1, 3]: 21.1 per 100 patient years
- Primary Outcome n/N [1, 3]: 1013/3014
- Urgent Outpatient Visit as 1st Primary Event (%) [1, 3]: (2%)
- Urgent Outpatient Visit as 1st Primary Event Rate [1, 3]: 1.1 per 100 patient years
- Urgent Outpatient Visit as 1st Primary Event n/N [1, 3]: 52/3014
- All-cause Death ARR [1, 4]: 0.6 per 100 patient years
- All-cause Death HR (95% CI) [1, 4]: 1.05 (0.94, 1.17);
- Heart Failure Hospitalization ARR [1, 4]: −0.1 per 100 patient years
- Heart Failure Hospitalization HR (95% CI) [1, 4]: 1.01 (0.91, 1.12);
- Primary Outcome ARR [1, 4]: 0.2 per 100 patient years
- Primary Outcome HR (95% CI) [1, 4]: 0.99 (0.91, 1.08);
- All-cause Death (%) [1, 5]: (34%)
- All-cause Death Rate [1, 5]: 20.1 per 100 patient years
- All-cause Death n/N [1, 5]: 365/1081
- HF Hosp as 1st Primary Event (%) [1, 5]: (35%)
- HF Hosp as 1st Primary Event Rate [1, 5]: 25.9 per 100 patient years
- HF Hosp as 1st Primary Event n/N [1, 5]: 385/1106
- Heart Failure Hospitalization (%) [1, 5]: (36%)
- Heart Failure Hospitalization Rate [1, 5]: 26.2 per 100 patient years
- Heart Failure Hospitalization n/N [1, 5]: 385/1081
- Primary Endpoint (%) [1, 5]: (46%)
- Primary Endpoint Rate [1, 5]: 34.3 per 100 patient years
- Primary Endpoint n/N [1, 5]: 510/1106
- Urgent Outpatient Visit as 1st Primary Event (%) [1, 5]: (2%)
- Urgent Outpatient Visit as 1st Primary Event Rate [1, 5]: 1.2 per 100 patient years
- Urgent Outpatient Visit as 1st Primary Event n/N [1, 5]: 18/1106
- All-cause Death ARR [1, 6]: 1.5 per 100 patient years
- All-cause Death HR (95% CI) [1, 6]: 0.92 (0.80, 1.06);
- Heart Failure Hospitalization ARR [1, 6]: 5.2 per 100 patient years
- Heart Failure Hospitalization HR (95% CI) [1, 6]: 0.84 (0.73, 0.96);
- Primary Endpoint ARR [1, 6]: 8.3 per 100 patient years
- Primary Endpoint HR (95% CI) [1, 6]: 0.80 (0.71, 0.90);
- NT-proBNP ([1]; Non-Advanced HF, OM group, week 24): 1274 [531, pg/ml
- NT-proBNP (Ratio) ([1]; Non-Advanced HF, week 0 to 24, OM vs placebo): 0.91
- KCCQ total symptom score (TSS), increase ([1]; advanced HF): 1.1
- KCCQ total symptom score (TSS), decrease ([1]; advanced HF): 1.7
- Myocardial infarctions ([1]; human, in vivo): 3.8%
- Serious adverse events related to ventricular tachyarrhythmias ([1]; human, in vivo): 7.9%
- Strokes ([1]; human, in vivo): 1.6%
- Treatment emergent serious adverse events ([1]; human, in vivo): 67%
- Circulating cardiac troponin ([1]; in vivo): small increase
- Creatinine ([1]; in vivo): 1.29 ± 0.49 mg/dL
- Heart rate lowering, difference in change vs placebo ([1]; in vivo): 1.9 beats/minute
- Systolic BP ([1]; in vivo): 118.4 ± 16.8 mm Hg
- Troponin I (Ratio) ([1]; in vivo): 1.24
- NT-proBNP ([1]; more advanced HF population, result in words): significant decrease
- KCCQ total symptom score (TSS), increase ([1]; non-advanced HF): 3.3
- KCCQ total symptom score (TSS), decrease ([1]; non-advanced HF): 0.2
- Cardiovascular mortality, hazard ratio ([1]; patients with less advanced HF): 1.10
- Absolute risk reduction, primary endpoint ([1]; patients with more advanced HF): 8.3 events/100 patient-years
- Cardiovascular mortality, hazard ratio ([1]; patients with more advanced HF): 0.88
- Primary endpoint, hazard ratio ([1]; patients with more advanced HF): 0.80
- Relative risk reduction, primary endpoint ([1]; patients with more advanced HF): 20%
- Primary endpoint, hazard ratio ([1]; patients without more advanced HF): 0.99
- NNT ([1]; primary endpoint, patients with more advanced HF): 12
- Left ventricular systolic and diastolic volumes, natriuretic peptide concentrations and heart rate (patients with HFrEF; oral therapy for 20 weeks, chronic HFrEF): reduced left ventricular systolic and diastolic volumes, plasma natriuretic peptide concentrations and heart rate; also recorded: decreased left ventricular systolic and diastolic volumes
- Cardiac performance (patients with HFrEF; short-term intravenous and longer-term oral therapy): improved cardiac performance
- Inhibition of CYP2C8 (CYP2C8): weak inhibitor
